Laboratory results from patent US12227500B2, “Substituted pyrrolo[2,3-b]pyridines for suppressing toxic endoplasmic reticulum stress” (THE TRUSTEES OF COLUMBIA UNIVERSITY IN THE CITY OF NEW YORK, priority 2018, dated 2025).
Several values for one entry are separate records, joined by “and”; a condition that tells them apart may be missing. Equal entries are not always repeated. Where two headings read alike, the source gives them in different places.

Key:
[1] = test system: human ES motor neurons carrying the ALS-causing SOD1^A4V mutation; experiment: cells; format: cell-based; conditions: 72 h, 72 h; for EC50 / Emax: CPA 33 μM; for EC50: read-out: EC50; for viability at 1 µM: CPA (33 μM) + compound (1 μM), read-out: Motor Neuron Survival, % untreated; for Emax: read-out: Emax (MN survival % untreated)
Procedure: Next, survival assays were performed with all the analogs at once to generate a low-variability dataset. All compounds were evaluated at concentrations ranging from 0.1-3.0 μM (five-point dilution) in three technical replicates and two biological replicates.

MLK1/MAP3K9 = biological target: T1, MLK1/MAP3K9 (Homo sapiens, UniProt P80192); experiment: Radiolabeled ATP kinase assay (Reaction Biology Corp.), MLK1; format: biochemical; conditions: [Cmpd] 0.1 μM, 10 μM ATP
T1 construct: purchased Reaction Biology Corp
Procedure: Meanwhile, the same analogs were analyzed in a radiolabeled ATP assay (10 μM ATP; Reaction Biology Corp.) to compare the extent to which they could inhibit the activity of HGK, MLK1, or MLK3 in a cell-free environment (Table S3 and S4).

in vitro = conditions: CD-1, mouse, liver microsomes, pH 7.4
Procedure: To test the metabolic stability of the analogs, an in vitro microsomal stability assay was carried out.
The microsomal stability assay was performed in 96-well format (Perkin-Elmer, StorPlate-96U, PP, 96 well, round bottom). […] A stock solution of the compound to be analyzed (0.8 μL. 5 mM) or ethoxycoumarin (positive control, 0.8 μL, 5 mM) was added and the mixture was warmed to 37° C. for 5 minutes. The mouse microsomes (CD-1, 5 μL, thawed in a 37° C. water bath before use, 20 mg/mL, Life Technologies) were added. At selected time points (0, 15, 30, 45, 60 and 120 minutes) aliquots (15 μL) were withdrawn from the plate and quenched upon addition to cold acetonitrile (60 μL), containing an internal standard (5 μM) in a 96-well plate. The samples were centrifuged at 13,000 rpm for 10 minutes at 4° C. The supernatant (40 μL) was withdrawn and transferred to a sample vial with insert. The samples were analyzed by LC-MS.
LC-MS analysis was performed on a platform comprising a Thermo Scientific Dionex Ultimate 3000 and a Bruker amaZon SL equipped with an electrospray ionization source controlled by Bruker Hystar 3.2. […] The flow rate was maintained at 400 μL/min. The initial flow conditions were 60% solvent A (water containing 0.1% acetic acid) and 40% solvent B (methanol containing 0.1% acetic acid).
Aliquots were taken over the course of two hours and analyzed by HPLG-MS using an internal standard to assess compound stability over time.

[2] = biological target: T2, panel of 371 human kinases (Homo sapiens, UniProt O15075); experiment: Radiolabeled ATP kinase assay, panel of 371 kinases (Table S6); format: biochemical; conditions: DCAMKL1; 0.1 μM; 10 μM ATP; read-out: % Enzyme Activity (relative to DMSO controls)
T2 construct: purchased Reaction Biology Corp
Excerpt: (§1) ; FIG. 38C). […]. Further targeted analyses, such as genetic knock-down or knock-out, may be warranted to parse the role of these additional kinases in our model of neurodegeneration.

[3] = biological target: T3, panel of 371 human kinases (Homo sapiens, UniProt O75385); experiment: as above; format: biochemical; conditions: ULK1; 0.1 μM; 10 μM ATP; read-out: % Enzyme Activity (relative to DMSO controls)
T3 construct: purchased Reaction Biology Corp
Excerpt: as §1

[4] = biological target: T4, panel of 371 human kinases (Homo sapiens, UniProt P04629); experiment: as above; format: biochemical; conditions: TRKA; 0.1 μM; 10 μM ATP; read-out: % Enzyme Activity (relative to DMSO controls)
T4 construct: purchased Reaction Biology Corp
Excerpt: as §1

[5] = biological target: T5, panel of 371 human kinases (Homo sapiens, UniProt P41279); experiment: as above; format: biochemical; conditions: COT1/MAP3K8; 0.1 μM; 10 μM ATP; read-out: % Enzyme Activity (relative to DMSO controls)
T5 construct: purchased Reaction Biology Corp
Excerpt: as §1

[6] = biological target: T6, panel of 371 human kinases (Homo sapiens, UniProt P43403); experiment: as above; format: biochemical; conditions: ZAP70; 0.1 μM; 10 μM ATP; read-out: % Enzyme Activity (relative to DMSO controls)
T6 construct: purchased Reaction Biology Corp
Excerpt: as §1

[7] = biological target: T7, panel of 371 human kinases (Homo sapiens, UniProt P53778); experiment: as above; format: biochemical; conditions: P38g; 0.1 μM; 10 μM ATP; read-out: % Enzyme Activity (relative to DMSO controls)
T7 construct: purchased Reaction Biology Corp
Excerpt: as §1

[8] = biological target: T8, panel of 371 human kinases (Homo sapiens, UniProt Q6P5Z2); experiment: as above; format: biochemical; conditions: PKN3/PRK3; 0.1 μM; 10 μM ATP; read-out: % Enzyme Activity (relative to DMSO controls)
T8 construct: purchased Reaction Biology Corp
Excerpt: as §1

[9] = biological target: T9, panel of 371 human kinases (Homo sapiens, UniProt Q9Y4K4); experiment: as above; format: biochemical; conditions: for remaining activity at 0.1 µM: KHS/MAP4K5, 10 μM ATP, read-out: % Enzyme Activity (relative to DMSO controls)
T9 construct: purchased Reaction Biology Corp
Excerpt: as §1

[10] = Plasma and brain concentration 30 min after IP injection; format: in vivo, mouse; conditions: male, C57BL6/J, mouse, mice, ip dosing, 30 minutes; for Kp at 30 min: brain/plasma, read-out: B/P
Procedure: All studies were performed on 6-week old male C57BL6/J mice that were housed in the Columbia University Medical Center facility in a 12h light/dark cycle with access to food and water ad libitum. All animal procedures were approved by the Columbia University IACUC. […] Animals were weighed and injected once intraperitoneally (IP) at the indicated dose (10 or 20 mg/kg). After 30 min, animals were deeply anesthetized with 2.5% Avertin. Whole blood was collected by cardiac puncture in tubes containing 0.5M EDTA as an anticoagulant, and centrifuged for 10 min at 845 rcf at 4° to isolate plasma. Following cardiac puncture, animals were decapitated and brains were dissected and weighed. Brain samples were homogenized with a glass dounce homogenizer in 5 volumes of ddH2O. Brain and plasma samples were snap frozen in liquid nitrogen and stored at −80° C. before further processing.
The plasma samples were transferred to Eppendorf tubes (50 μL per sample) and diluted with acetonitrile (200 μL). The samples were sonicated for 1 minute followed by centrifugation at 16,000 rpm for 10 minutes. The supernatant was transferred to another Eppendorf tube and the solvent evaporated overnight. The samples were reconstituted in a mixture of 40 μL acetonitrile and 10 μL water transferred to a sample vial with insert, and analyzed by LC-MS.
The homogenized brain samples (250 μL) were transferred to Eppendorf tubes and diluted with acetonitrile (750 μL). The samples were sonicated for 1 minute followed by centrifugation at 16,000 rpm for 10 minutes. The supernatant (900 μL) was transferred to another Eppendorf tube and the solvent evaporated overnight. The samples were reconstituted in a mixture of 80 μL acetonitrile and 20 μL water, transferred to a sample vial with insert, and analyzed by LC-MS.
LC-MS analysis was performed on a platform comprising a Thermo Scientific Dionex Ultimate 3000 and a Bruker amaZon SL equipped with an electrospray ionization source controlled by Bruker Hystar 3.2. The compound concentration in each plasma sample was determined using a calibration curve. Chromatographic separation was performed by injecting 10 μL of the sample onto an Agilent Eclipse Plus C18 column (2.1×50 mm, 3.5 μm) maintained at 20° C. The flow rate was maintained at 400 μL/min. The initial flow conditions were 60% solvent A (water containing 0.1% acetic acid) and 40% solvent B (methanol containing 0.1% acetic acid). Solvent B was raised to 60% over 0.25 minutes and to 70% by 6.75 minutes.

[11] = Plasma and brain concentration after IV injection (FIG. 13B); format: in vivo, mouse; conditions: 10 mg/kg
Procedure: Drug concentrations were analyzed by LC-MS.

[12] = test system: panel of 60 human kinases; experiment: Radiolabeled ATP kinase assay, panel of 60 kinases (Table S5); format: biochemical; conditions: 0.5 μM
Procedure, shortened: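 Compounds at two concentrations, 0.1 μM and 0.5 μM, were screened for inhibition of 60 kinases in cell-free assays read out by radiolabeled ATP.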

[13] = read-out: % Enzyme Activity Remaining (relative to DMSO controls), MLK1/MAP3K9, Data 1
[14] = read-out: % Enzyme Activity Remaining (relative to DMSO controls), MLK1/MAP3K9, Data 2

T1 sequence (P80192 whole entry): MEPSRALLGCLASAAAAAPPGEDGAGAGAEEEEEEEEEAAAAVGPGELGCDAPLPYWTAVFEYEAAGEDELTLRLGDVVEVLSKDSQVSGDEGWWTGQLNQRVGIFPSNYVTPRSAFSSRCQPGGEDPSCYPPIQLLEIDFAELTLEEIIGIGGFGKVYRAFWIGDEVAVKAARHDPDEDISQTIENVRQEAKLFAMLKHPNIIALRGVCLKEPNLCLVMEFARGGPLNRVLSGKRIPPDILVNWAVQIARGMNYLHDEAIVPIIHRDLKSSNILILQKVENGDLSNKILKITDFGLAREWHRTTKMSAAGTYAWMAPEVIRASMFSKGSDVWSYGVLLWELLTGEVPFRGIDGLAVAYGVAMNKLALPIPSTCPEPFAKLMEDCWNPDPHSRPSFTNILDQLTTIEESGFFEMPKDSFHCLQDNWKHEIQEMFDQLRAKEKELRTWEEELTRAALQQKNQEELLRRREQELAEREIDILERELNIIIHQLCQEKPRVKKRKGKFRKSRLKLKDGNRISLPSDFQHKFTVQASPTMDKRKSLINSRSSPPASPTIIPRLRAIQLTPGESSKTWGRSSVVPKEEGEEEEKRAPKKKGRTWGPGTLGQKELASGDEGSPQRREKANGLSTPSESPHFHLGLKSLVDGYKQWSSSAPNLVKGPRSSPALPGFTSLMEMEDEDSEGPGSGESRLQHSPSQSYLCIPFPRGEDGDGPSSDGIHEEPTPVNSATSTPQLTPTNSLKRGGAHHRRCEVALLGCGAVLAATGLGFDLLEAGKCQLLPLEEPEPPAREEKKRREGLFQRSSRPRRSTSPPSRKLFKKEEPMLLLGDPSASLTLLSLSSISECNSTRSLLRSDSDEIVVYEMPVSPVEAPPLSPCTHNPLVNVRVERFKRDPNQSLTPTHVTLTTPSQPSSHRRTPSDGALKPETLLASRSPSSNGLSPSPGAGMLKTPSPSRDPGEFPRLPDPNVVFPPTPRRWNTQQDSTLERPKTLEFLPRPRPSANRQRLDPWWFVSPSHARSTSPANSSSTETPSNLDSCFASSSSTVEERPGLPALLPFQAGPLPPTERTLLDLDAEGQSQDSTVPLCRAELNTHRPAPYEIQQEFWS
T9 sequence (Q9Y4K4 whole entry): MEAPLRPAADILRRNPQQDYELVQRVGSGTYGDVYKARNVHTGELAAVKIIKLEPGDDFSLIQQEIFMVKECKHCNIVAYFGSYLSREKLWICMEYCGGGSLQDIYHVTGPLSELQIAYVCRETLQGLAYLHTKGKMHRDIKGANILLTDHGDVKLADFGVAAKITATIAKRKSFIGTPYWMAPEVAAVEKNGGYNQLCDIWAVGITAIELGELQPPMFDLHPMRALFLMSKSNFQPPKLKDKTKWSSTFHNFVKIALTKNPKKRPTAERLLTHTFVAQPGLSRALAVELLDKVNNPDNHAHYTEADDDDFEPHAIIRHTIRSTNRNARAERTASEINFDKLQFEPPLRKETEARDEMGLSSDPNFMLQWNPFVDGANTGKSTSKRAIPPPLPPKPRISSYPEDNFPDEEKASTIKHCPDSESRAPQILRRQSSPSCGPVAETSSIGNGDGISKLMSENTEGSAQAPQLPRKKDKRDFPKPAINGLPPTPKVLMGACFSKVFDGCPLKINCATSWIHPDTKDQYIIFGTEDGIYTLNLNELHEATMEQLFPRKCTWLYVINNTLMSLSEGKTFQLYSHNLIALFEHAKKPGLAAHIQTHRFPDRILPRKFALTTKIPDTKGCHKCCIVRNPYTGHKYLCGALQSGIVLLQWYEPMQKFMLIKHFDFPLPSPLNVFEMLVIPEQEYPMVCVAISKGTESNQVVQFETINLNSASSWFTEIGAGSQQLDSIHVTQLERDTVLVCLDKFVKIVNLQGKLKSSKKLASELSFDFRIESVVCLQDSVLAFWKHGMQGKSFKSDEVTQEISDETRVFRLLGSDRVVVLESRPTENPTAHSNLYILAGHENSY
T6 sequence (P43403 whole entry): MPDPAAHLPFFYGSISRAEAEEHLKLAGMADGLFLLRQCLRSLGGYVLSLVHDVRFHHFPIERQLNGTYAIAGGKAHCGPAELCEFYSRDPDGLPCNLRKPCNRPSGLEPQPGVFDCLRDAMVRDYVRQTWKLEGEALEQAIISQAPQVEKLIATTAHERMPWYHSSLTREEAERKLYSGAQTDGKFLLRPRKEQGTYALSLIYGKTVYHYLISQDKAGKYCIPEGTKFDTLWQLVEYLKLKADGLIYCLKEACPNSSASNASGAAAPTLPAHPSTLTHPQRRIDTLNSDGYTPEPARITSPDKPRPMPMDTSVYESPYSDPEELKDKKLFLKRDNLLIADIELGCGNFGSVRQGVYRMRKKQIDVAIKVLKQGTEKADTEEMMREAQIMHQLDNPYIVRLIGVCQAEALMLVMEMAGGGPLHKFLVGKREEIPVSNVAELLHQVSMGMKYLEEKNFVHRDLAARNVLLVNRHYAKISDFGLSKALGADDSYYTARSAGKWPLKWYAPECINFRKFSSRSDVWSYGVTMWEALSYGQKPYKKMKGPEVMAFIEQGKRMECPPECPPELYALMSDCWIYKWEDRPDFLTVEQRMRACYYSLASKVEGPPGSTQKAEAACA
T7 sequence (P53778 whole entry): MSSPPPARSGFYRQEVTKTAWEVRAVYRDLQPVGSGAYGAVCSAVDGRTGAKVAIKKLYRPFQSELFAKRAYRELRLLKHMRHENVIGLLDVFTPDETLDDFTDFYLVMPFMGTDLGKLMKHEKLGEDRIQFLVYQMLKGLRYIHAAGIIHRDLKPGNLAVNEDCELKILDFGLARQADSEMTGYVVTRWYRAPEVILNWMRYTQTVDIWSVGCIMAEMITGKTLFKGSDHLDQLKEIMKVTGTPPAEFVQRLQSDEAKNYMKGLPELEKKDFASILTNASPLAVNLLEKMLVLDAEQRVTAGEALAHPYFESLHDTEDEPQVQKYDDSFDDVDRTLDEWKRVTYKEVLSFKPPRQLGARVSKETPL
T3 sequence (O75385 whole entry): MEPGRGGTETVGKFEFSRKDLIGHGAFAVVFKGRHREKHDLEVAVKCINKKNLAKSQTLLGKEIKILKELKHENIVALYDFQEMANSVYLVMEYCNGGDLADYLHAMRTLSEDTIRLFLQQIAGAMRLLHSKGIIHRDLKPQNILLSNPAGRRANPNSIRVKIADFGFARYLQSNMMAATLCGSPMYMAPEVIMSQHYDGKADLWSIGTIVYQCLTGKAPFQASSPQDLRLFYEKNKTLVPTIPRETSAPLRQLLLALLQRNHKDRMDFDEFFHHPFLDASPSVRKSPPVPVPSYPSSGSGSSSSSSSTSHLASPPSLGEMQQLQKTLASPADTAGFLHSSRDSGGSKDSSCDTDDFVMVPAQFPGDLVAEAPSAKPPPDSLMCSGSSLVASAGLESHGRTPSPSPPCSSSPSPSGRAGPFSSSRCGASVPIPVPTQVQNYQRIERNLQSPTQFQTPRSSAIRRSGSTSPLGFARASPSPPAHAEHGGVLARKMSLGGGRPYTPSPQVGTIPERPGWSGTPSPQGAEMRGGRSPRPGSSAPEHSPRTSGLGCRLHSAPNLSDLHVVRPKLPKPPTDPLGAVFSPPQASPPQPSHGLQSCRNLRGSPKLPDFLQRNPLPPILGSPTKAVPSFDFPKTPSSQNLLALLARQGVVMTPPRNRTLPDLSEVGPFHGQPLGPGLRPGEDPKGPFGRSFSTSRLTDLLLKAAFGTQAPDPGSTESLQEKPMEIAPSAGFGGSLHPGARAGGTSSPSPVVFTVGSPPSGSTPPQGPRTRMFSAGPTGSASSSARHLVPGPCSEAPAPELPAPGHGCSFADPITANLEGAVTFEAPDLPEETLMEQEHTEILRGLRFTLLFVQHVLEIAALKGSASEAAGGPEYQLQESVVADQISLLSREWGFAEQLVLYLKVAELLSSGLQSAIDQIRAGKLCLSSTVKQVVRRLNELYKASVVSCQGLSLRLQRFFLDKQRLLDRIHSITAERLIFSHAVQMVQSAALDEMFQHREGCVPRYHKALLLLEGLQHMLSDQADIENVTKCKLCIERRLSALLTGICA
T8 sequence (Q6P5Z2 whole entry): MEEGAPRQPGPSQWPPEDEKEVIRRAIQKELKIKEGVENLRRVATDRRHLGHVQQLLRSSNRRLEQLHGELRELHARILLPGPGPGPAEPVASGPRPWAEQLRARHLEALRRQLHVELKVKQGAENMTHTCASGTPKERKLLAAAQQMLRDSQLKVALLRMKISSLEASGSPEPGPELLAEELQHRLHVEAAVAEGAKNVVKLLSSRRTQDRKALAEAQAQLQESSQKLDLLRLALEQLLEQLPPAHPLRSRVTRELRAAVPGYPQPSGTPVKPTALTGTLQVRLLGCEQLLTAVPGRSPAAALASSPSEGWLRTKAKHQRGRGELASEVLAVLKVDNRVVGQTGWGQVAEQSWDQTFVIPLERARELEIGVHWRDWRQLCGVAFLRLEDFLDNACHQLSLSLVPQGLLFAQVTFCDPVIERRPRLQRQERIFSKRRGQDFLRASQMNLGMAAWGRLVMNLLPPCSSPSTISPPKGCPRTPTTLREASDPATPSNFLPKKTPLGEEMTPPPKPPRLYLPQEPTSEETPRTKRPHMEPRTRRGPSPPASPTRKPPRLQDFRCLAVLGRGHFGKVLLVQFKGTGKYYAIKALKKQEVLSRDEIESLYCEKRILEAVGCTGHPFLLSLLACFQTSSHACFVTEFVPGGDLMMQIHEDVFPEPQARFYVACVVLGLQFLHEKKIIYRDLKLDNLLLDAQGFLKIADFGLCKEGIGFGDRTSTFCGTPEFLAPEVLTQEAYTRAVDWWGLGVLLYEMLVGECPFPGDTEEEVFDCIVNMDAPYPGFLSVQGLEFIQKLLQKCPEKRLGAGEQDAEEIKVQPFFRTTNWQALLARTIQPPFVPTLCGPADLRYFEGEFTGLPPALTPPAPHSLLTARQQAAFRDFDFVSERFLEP

Structure (SMILES)	EC50 ([1]; Homo sapiens, Neuron) [nM]	viability at 1 µM ([1]; Homo sapiens, Neuron) [%]	Emax ([1]; Homo sapiens, Neuron) [%]	remaining activity at 0.1 µM (MLK1/MAP3K9; [13]) [%]	remaining activity at 0.1 µM (MLK1/MAP3K9; [14]) [%]	half-life at 20 μM (in vitro) [min]	also measured
COc1ccccc1-c1c[nH]c2ncc(-c3ccc(CN4CCN(C)CC4)cc3)cc12 [Compound 7at, 3-(2-Methoxyphenyl)-5-(4-((4-methylpiperazin-1-yl)methyl)phenyl)-1H-pyrrolo[2,3-b]pyridine]	297	67.5	85	31.3	30.6	> 30	
OCCN1CCN(Cc2ccc(-c3cnc4[nH]cc(-c5cccc(Cl)c5)c4c3)cc2)CC1 [Compound 12k, 2-(4-(4-(3-(3-Chlorophenyl)-1H-pyrrolo[2,3-b]pyridin-5-yl)benzyl)piperazin-1-yl)ethan-1-ol]	99		112			> 120	EC50 [1]: 100 nM; remaining activity at 0.1 µM [2]: 94.2%; remaining activity at 0.1 µM [3]: 88.8%; remaining activity at 0.1 µM [4]: 75.4%; remaining activity at 0.1 µM [5]: 87.5%; remaining activity at 0.1 µM [6]: 102%; remaining activity at 0.1 µM [7]: 99.7%; remaining activity at 0.1 µM [8]: 93.7%; fold change in KHS activity following 12k exposure relative to 1 ([9]; 0.025 μM): 17.36 fold; remaining activity at 0.1 µM [9]: 1.81%; Kp at 30 min ([10]; 10 mg/kg): 3.3; Kp at 30 min ([10]; 20 mg/kg): 4; concentration at 30 min ([10]; 10 mg/kg, read-out: brain): 1230 ng/g and 2.74 µM; concentration at 30 min ([10]; 10 mg/kg, read-out: plasma): < 375 ng/mL and < 840 nM; concentration at 30 min ([10]; 20 mg/kg, read-out: brain): 5180 ng/g and 11.6 µM; concentration at 30 min ([10]; 20 mg/kg, read-out: plasma): 1290 ng/mL and 2.88 µM; level in plasma and brain 1 h after injection (LC-MS) [11]: still detectable
Cc1nn(C)c(C)c1-c1c[nH]c2ncc(-c3ccc(CN4CCN(C)CC4)cc3)cc12 [Compound 7ai, 5-(4-((4-Methylpiperazin-1-yl)methyl)phenyl)-3-(1,3,5-trimethyl-1H-pyrazol-4-yl)-1H-pyrrolo[2,3-b]pyridine]	3230		86.5	93.3	90.5		
CN1CCN(Cc2ccc(-c3cnc4[nH]cc(-c5ccncc5)c4c3)cc2)CC1 [Compound 7n, 5-(4-((4-Methylpiperazin-1-yl)methyl)phenyl)-3-(pyridin-4-yl)-1H-pyrrolo[2,3-b]pyridine]	483	36.3	36.3	88.9	88.7		
CN1CCN(Cc2ccc(-c3cnc4[nH]cc(-c5cnn(Cc6ccccc6)c5)c4c3)cc2)CC1 [Compound 7ah, 3-(1-Benzyl-1H-pyrazol-4-yl)-5-(4-((4-methylpiperazin-1-yl)methyl)phenyl)-1H-pyrrolo[2,3-b]pyridine]	234	67.1	67.1	51.1	48.2		
CN1CCN(Cc2ccc(-c3cnc4[nH]cc(-c5ccoc5)c4c3)cc2)CC1 [Compound 7w, 3-(Furan-3-yl)-5-(4-((4-methylpiperazin-1-yl)methyl)phenyl)-1H-pyrrolo[2,3-b]pyridine]	1370	46.6	0.42	76	79.3		
CN1CCN(Cc2ccc(-c3cnc4[nH]cc(-c5cccc(Cl)c5)c4c3)cc2)CC1 [Compound 7ad, 3-(3-Chlorophenyl)-5-(4-((4-methylpiperazin-1-yl)methyl)phenyl)-1H-pyrrolo[2,3-b]pyridine]	285	87.7	87.7	61.9	63.6	> 30	number of the 60 kinases strongly inhibited (<20% residual activity) [12]: 12
CN1CCN(Cc2ccc(-c3cnc4[nH]cc(-c5ccc6[nH]ccc6c5)c4c3)cc2)CC1 [Compound 1, 3-(1H-Indol-5-yl)-5-(4-((4-methylpiperazin-1-yl)methyl)phenyl)-1H-pyrrolo[2,3-b]pyridine, reference compound]	215	102	102	16.2	14.2	7.8	number of the 60 kinases strongly inhibited (<20% residual activity) [12]: 27; remaining activity at 0.1 µM [2]: 97.2%; remaining activity at 0.1 µM [3]: 89.7%; remaining activity at 0.1 µM [4]: 69.2%; remaining activity at 0.1 µM [5]: 101%; remaining activity at 0.1 µM [6]: 103%; remaining activity at 0.1 µM [7]: 108%; remaining activity at 0.1 µM [8]: 84.7%; remaining activity at 0.1 µM [9]: 31.4%; Kp at 30 min ([10]; 10 mg/kg): 0.3; Kp at 30 min ([10]; 20 mg/kg): 0.4; concentration at 30 min ([10]; 10 mg/kg, read-out: brain): 1010 ng/g and 1.89 µM; concentration at 30 min ([10]; 10 mg/kg, read-out: plasma): 3210 ng/mL and 6 µM; concentration at 30 min ([10]; 20 mg/kg, read-out: brain): 1410 ng/g and 2.64 µM; concentration at 30 min ([10]; 20 mg/kg, read-out: plasma): 3480 ng/mL and 6.5 µM; level in plasma and brain 1 h after injection (LC-MS) [11]: below the limits of detection
CN1CCN(Cc2ccc(-c3cnc4[nH]cc(-c5ccc6c(c5)OCCO6)c4c3)cc2)CC1 [Compound 7d, 3-(2,3-Dihydrobenzo[b][1,4]dioxin-6-yl)-5-(4-((4-methylpiperazin-1-yl)methyl)phenyl)-1H-pyrrolo[2,3-b]pyridine]	327	72.9	72.9	25.6	23.6		
CN1CCN(Cc2ccc(-c3cnc4[nH]cc(-c5ccccc5Cl)c4c3)cc2)CC1 [Compound 7as, 3-(2-Chlorophenyl)-5-(4-((4-methylpiperazin-1-yl)methyl)phenyl)-1H-pyrrolo[2,3-b]pyridine]	329	80.8	80.8	72.7	73.3		
